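Dose response: 5 concentrations. Exposure: 48 h. Format: 96-well plates. Endpoint: linear interpolation; highest concentration if not reached. Here, GI50 denotes the concentration required for 50% inhibition of growth. TGI: concentration producing complete growth inhibition.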
Columns and labels:
Experiment in all cases: NCI anticancer screen, dose series, 48 h
[1] = system: UACC-62 melanoma
[2] = system: OVCAR-4 ovarian
[3] = system: HOP-92 NSCLC
[4] = system: ACHN renal
[5] = system: COLO 205 colon
[6] = system: HT29 colon
[7] = system: CCRF-CEM leukemia
[8] = system: OVCAR-3 ovarian
[9] = system: NCI/ADR-RES ovarian
[10] = system: SK-MEL-28 melanoma

Row | Compound | TGI [1] [µM] | TGI [2] [µM] | TGI [3] [µM] | TGI [4] [µM] | TGI [5] [µM] | TGI [6] [µM] | TGI [7] [µM] | TGI [8] [µM] | TGI [9] [µM] | TGI [10] [µM] | GI50 [2] [µM] | GI50 [3] [µM] | GI50 [10] [µM] | GI50 [5] [µM] | GI50 [6] [µM] | GI50 [7] [µM] | GI50 [8] [µM] | GI50 [9] [µM]
1 | COc1ccc2c(c1)C1Oc3ccccc3CC1(O)CO2 (configuration not stated) | > 100 | > 100 | > 100 | > 100 | > 100 | > 100 | > 100 | > 100 | > 100 | – | – | – | – | – | – | – | – | –
2 | Cc1c(C)c2c(c(N)c1C#N)C(=O)N(OS(=O)(=O)c1ccccc1)C2=O | 61.4 | 41.3 | 35.2 | 33.1 | 45.3 | – | > 100 | 59.8 | 58.9 | 67.3 | – | – | – | – | – | – | – | –
3 | C/C=C1\CN2CCC34c5ccccc5N(C)C35OCC4(C(=O)OC)C1CC25 (configuration not stated) | > 100 | > 100 | > 100 | > 100 | 31.5 | – | > 100 | > 100 | – | > 100 | – | – | – | – | – | – | – | –
4 | CCOC(O)C(F)(F)F (configuration not stated) | – | – | > 100 | > 100 | > 100 | > 100 | > 100 | > 100 | > 100 | > 100 | – | – | – | – | – | – | – | –
5 | COC(=O)c1c(C)ccc2c(O)c3c(cc12)C(=O)c1c2c(cc(O)c1C3=O)C1(C)OC(C)(O2)C(O)C(N(C)C)C1O (configuration not stated) | 8.64 | 8.81 | > 100 | 4.67 | 7.56 | 2.01 | – | 9.59 | > 100 | 11.8 | – | – | – | – | – | – | – | –
6 | CC(C)=CC(C)C(C(O)CCC1(c2ccoc2)OCCO1)S(=O)(=O)c1ccccc1 (configuration not stated) | – | > 100 | – | > 100 | > 100 | – | > 100 | > 100 | > 100 | > 100 | – | – | – | – | – | – | – | –
7 | N#Cc1ccc(/C=N/NC(=O)CSCC(=O)N/N=C/c2ccc(C#N)cc2)cc1 | > 100 | > 100 | > 100 | > 100 | > 100 | > 100 | – | > 100 | > 100 | > 100 | – | – | – | – | – | – | – | –
8 | CN1c2ccccc2C(=O)NC12CCN(Cc1ccccc1)CC2 | > 100 | > 100 | 98.5 | > 100 | > 100 | > 100 | > 100 | – | > 100 | > 100 | – | – | – | – | – | – | – | –
9 | Cc1ccc(S(=O)(=O)NC(=O)NC(Cc2ccccc2)C(=O)O)cc1 (configuration not stated) | > 100 | > 100 | > 100 | > 100 | > 100 | > 100 | > 100 | – | > 100 | > 100 | – | – | – | – | – | – | – | –
10 | COC(=O)C1=C(O)C(C(=O)OC)[C@]2(O)[C@H](C(=O)OC)[C@H]1C[C@@H](c1cccc(OC)c1)[C@H]2C(=O)OC (some centres not stated) | 35.1 | 96.4 | > 100 | 40.4 | > 100 | > 100 | – | – | > 100 | > 100 | – | – | – | – | – | – | – | –
11 | O=C(Nc1ccc(Cl)cc1)c1cccc([N+](=O)[O-])c1O | 17.6 | > 100 | 4.72 | > 100 | 10.5 | > 73.1 | 11.7 | 9.09 | – | 39.6 | – | – | – | – | – | – | – | –
12 | CCC(C)NC(=S)N/N=C(\C)c1ccccn1 (configuration not stated) | > 30 | > 100 | 0.668 | 10.3 | > 100 | > 100 | – | 23.4 | 7.94 | > 100 | – | – | – | – | – | – | – | –
13 | c1nncn1C12C3C4C5C3C1C5C42 (configuration not stated) | – | – | – | > 100 | > 100 | > 100 | > 100 | – | > 100 | > 100 | – | – | – | – | – | – | – | –
14 | C\C=C/C=C/C=C/C(=O)O | > 100 | > 100 | – | > 100 | > 100 | > 100 | > 100 | > 100 | – | > 100 | – | – | – | – | – | – | – | –
15 | O=C(Nc1ccccc1)c1cc(S(=O)(=O)Nc2n[nH]c(=O)[nH]2)c(SSc2cc(Cl)c(C(=O)Nc3ccccc3)cc2S(=O)(=O)Nc2n[nH]c(=O)[nH]2)cc1Cl | – | > 100 | > 100 | > 100 | > 100 | > 100 | > 100 | > 100 | > 100 | > 100 | – | – | – | – | – | – | – | –
16 | N#CCN1CCCCCc2ccccc21 | > 100 | > 100 | > 100 | > 100 | > 100 | > 100 | > 100 | – | > 100 | > 100 | – | – | – | – | – | – | – | –
17 | CC1(C)C2CCC1(C)C(N/C(=C(/C(Cl)=C(Cl)Cl)[N+](=O)[O-])n1nnc3ccccc31)C2 (configuration not stated) | 46 | 60.7 | – | 42.1 | 34.4 | > 100 | > 100 | 32.6 | 97.6 | > 100 | – | – | – | – | – | – | – | –
18 | O=c1c(/C=C/c2c(O)ccc3ccccc23)nnc2sc(-c3cccc([N+](=O)[O-])c3)nn12 | 43.9 | 51.6 | > 100 | > 100 | > 100 | > 100 | – | 7.23 | 67.8 | > 100 | – | – | – | – | – | – | – | –
19 | CCCN=C1Nc2ccccc2[C@@H]2N(C)c3ccccc3C(C)C[C@]12C (some centres not stated) | 33.2 | 23.4 | – | 60.5 | 38 | 27.8 | 62.9 | 54.1 | 52 | 33.5 | – | – | – | – | – | – | – | –
20 | OCCN1CN(c2nc(N3CN(CCO)C3)nc(N3CN(CCO)C3)n2)C1 | 28.8 | 85.6 | 53 | 95.3 | 59.2 | 71.4 | 50.6 | – | > 100 | 37.3 | – | – | – | – | – | – | – | –
21 | COc1cc(C(=O)O[C@H](C(=O)NCCNC(=O)[C@@H](OC(=O)c2cc(OC)cc3c(C)cccc23)[C@]2(C)CO2)[C@]2(C)CO2)c2cccc(C)c2c1 | – | > 100 | 0.404 | – | – | 29.1 | – | 7.63 | 1.52 | – | 0.125 | 0.101 | 0.0524 | 0.149 | < 0.0198 | < 0.01 | 0.721 | 0.25
22 | O=S(=O)(O)c1ccc2c(N=Nc3ccccc3)c(O)c(S(=O)(=O)O)cc2c1 | > 100 | > 100 | > 100 | > 100 | > 100 | – | > 100 | > 100 | > 100 | > 100 | – | – | – | – | – | – | – | –
23 | O=c1[nH]c2nccnc2c2c([N+](=O)[O-])cccc12 | > 100 | > 100 | – | > 100 | > 100 | > 100 | > 100 | > 100 | > 100 | > 100 | – | – | – | – | – | – | – | –

Reference: PubChem BioAssay (NCI)
